Test results: publication PMC6268726, “Inhibition of 11β-HSD1 by Tetracyclic Triterpenoids from Euphorbia kansui” (Molecules, 2012)
Blank lines part the entries; values can stand above or below the molecule they belong to.

Tests used:
[1] = target: T1, mouse 11β-HSD1 (Mus musculus, UniProt P50172); assay: Inhibition of mouse 11β-HSD1, scintillation proximity assay (SPA) with microsomes from transfected HEK-293 cells; format: biochemical; conditions: for IC50: microsomes, NADPH, [3H]cortisone, n = 2; for Mouse HSD2/HSD1: selectivity ratio IC50 mouse 11β-HSD2 / mouse 11β-HSD1
T1 construct: the full-length cDNAs of human or marine 11β-HSD1 and 11β-HSD2 were isolated from the cDNA libraries; made in house; host or cells: HEK-293 (stably transfected, pcDNA3); microsomal fraction
From the text: (§1) Glucocorticoid hormones play important roles in many biological and physiological processes, including regulation of energy metabolism; inflammatory, immune and stress responses; and cardiovascular homeostasis. The action of glucocorticoid on target tissue is not inevitable dependent on the circulating levels, but is regulated in a tissue-specific manner by the 11β-hydroxysteroid dehydrogenase enzymes (11β-HSD1 and 11β-HSD2), which catalyze the interconversion of active 11-hydroxyglucocorticoids (cortisol in human and corticosterone in rodent) and their respective inert 11-keto forms (cortisone in human and 11-dehyfrocorticosterone in rodent). […] 11β-HSD2 is predominantly expressed in aldosterone target cells such as kidney and colon, where it catalyses the inactivation of glucocorticoids, thereby preventing excessive activation of the mineralocorticoid receptor and sequelae including sodium retention, hypokalemia, and hypertension. We tested the inhibitory effect of compounds on both human and mouse 11β-HSD1 and 11β-HSD2. All tests were done duplicate with glycyrrhizininc acid (human and mouse 11β-HSD1, human 11β-HSD2) and carbenoxolone (mouse 11β-HSD2) as positive control. IC50 (X […] S.D., n = 2) values were calculated by using Prism Version 4 (GraphPad Software, San Diego, CA, USA.).
(§2) Inhibition of compounds on human or mouse 11β-HSD1 and 11β-HSD2 enzymatic activities were determined by the scintillation proxitimity assay (SPA) using microsomes containing 11β-HSD1 or 11β-HSD2 according to the previous studies. Briefly the full-length cDNAs of human or marine 11β-HSD1 and 11β-HSD2 were isolated from the cDNA libraries provided by NIH Mammalian Gene Collection and cloned into pcDNA3 expression vector. HEK-293 cells were transfected with the pcDNA3-dericed expression plasmid and selected by cultivation in the presence of 700 μg/mL of G418. The microsomal fraction overexpressing 11β-HSD1 or 11β-HSD2 was prepared from the HEK-293 cells stable transfected with either 11β-HSD1 or 11β-HSD2 and used as the enzyme source for SPA. Microsomes containing human or mouse 11β-HSD1 was incubated with NADPH and [3H]cortisone, then the product, [3H]cortisol was specifically captured by a monoclonal antibody coupled to protein A-coated SPA beads. The 11β-HSD2 screening was performed by incubating 11β-HSD2 microsomes with [3H]cortisol and NAD^+ and monitoring substrate disappearance. IC50 (X ± S.D., n = 2) values were calculated by using Prism Version 4 (GraphPad Software, San Diego, CA, USA.) with glycyrrhizininc acid and carbenoxolone as positive control.

[2] = target: T2, mouse 11β-HSD2 (Mus musculus, UniProt P51661); assay: Inhibition of mouse 11β-HSD2, SPA with microsomes from transfected HEK-293 cells; format: biochemical; conditions: [3H]cortisol, NAD+, n = 2
T2 construct: the full-length cDNAs of human or marine 11β-HSD1 and 11β-HSD2 were isolated from the cDNA libraries; made in house; host or cells: HEK-293 (stably transfected, pcDNA3); microsomal fraction
T2 sequence (P51661 1-386): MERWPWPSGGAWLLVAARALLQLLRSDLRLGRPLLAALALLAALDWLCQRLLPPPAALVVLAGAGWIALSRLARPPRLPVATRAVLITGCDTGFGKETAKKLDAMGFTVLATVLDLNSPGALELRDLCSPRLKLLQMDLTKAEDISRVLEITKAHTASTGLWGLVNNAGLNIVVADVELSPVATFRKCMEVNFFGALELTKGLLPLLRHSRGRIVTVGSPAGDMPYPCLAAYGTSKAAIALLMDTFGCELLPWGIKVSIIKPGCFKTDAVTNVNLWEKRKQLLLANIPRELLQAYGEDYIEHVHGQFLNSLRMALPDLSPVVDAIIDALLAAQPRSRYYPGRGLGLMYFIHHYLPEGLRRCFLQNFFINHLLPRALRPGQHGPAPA
From the text: as §1, §2

[3] = target: T3, human 11β-HSD1 (Homo sapiens, UniProt P28845); assay: Inhibition of human 11β-HSD1, SPA with microsomes from transfected HEK-293 cells; format: biochemical; conditions: for IC50: microsomes, NADPH, [3H]cortisone, n = 2; for Human HSD2/HSD1: selectivity ratio IC50 human 11β-HSD2 / human 11β-HSD1
T3 construct: the full-length cDNAs of human or marine 11β-HSD1 and 11β-HSD2 were isolated from the cDNA libraries; made in house; host or cells: HEK-293 (stably transfected, pcDNA3); microsomal fraction
From the text: as §1, §2

[4] = target: T4, human 11β-HSD2 (Homo sapiens, UniProt P80365); assay: Inhibition of human 11β-HSD2, SPA with microsomes from transfected HEK-293 cells; format: biochemical; conditions: [3H]cortisol, NAD+, n = 2
T4 construct: the full-length cDNAs of human or marine 11β-HSD1 and 11β-HSD2 were isolated from the cDNA libraries; made in house; host or cells: HEK-293 (stably transfected, pcDNA3); microsomal fraction
T4 sequence (P80365 1-405): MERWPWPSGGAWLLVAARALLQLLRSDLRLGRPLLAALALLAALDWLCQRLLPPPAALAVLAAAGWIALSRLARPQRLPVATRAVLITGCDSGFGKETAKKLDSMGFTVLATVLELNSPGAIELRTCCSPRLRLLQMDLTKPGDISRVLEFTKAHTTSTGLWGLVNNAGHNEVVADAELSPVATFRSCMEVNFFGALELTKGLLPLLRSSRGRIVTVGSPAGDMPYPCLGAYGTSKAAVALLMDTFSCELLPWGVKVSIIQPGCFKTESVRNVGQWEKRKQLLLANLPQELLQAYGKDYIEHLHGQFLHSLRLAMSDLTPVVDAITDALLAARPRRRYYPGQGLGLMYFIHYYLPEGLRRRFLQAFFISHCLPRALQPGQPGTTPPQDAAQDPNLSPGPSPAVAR
From the text: as §1, §2

T3 sequence (P28845 whole entry): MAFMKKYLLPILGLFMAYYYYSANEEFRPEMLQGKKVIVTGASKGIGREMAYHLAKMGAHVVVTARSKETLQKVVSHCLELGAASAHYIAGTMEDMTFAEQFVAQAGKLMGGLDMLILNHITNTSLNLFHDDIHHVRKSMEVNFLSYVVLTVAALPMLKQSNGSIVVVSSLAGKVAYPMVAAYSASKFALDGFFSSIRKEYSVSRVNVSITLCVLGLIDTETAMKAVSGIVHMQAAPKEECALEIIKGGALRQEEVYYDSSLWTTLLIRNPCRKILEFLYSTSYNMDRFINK
T1 sequence (P50172 whole entry): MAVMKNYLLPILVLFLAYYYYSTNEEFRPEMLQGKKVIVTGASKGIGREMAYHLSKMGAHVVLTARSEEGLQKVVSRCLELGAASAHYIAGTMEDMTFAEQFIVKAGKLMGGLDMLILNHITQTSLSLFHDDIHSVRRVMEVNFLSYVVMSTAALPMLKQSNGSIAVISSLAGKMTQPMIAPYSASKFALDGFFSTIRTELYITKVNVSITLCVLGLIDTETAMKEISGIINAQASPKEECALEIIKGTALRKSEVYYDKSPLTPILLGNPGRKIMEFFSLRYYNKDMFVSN

IC50 [1]: 1.08 µM | Mouse HSD2/HSD1 [1]: >928 | IC50 [2]: > 1000 µM | IC50 [3]: 1.11 µM | Human HSD2/HSD1 [3]: 2.35 | IC50 [4]: 2.63 µM
Structure (SMILES): CC(C)=CCC[C@@H](C)[C@@H]1CC[C@]2(C)C(=O)[C@]3(CC[C@@]12C)[C@@H](O)CC1C(C)(C)[C@@H](O)CC[C@@]13C (stereo partly shown) [Compound 2, Kansuinone]

Structure (SMILES): C[C@H](C/C=C/C(C)(C)O)[C@@H]1CC[C@]2(C)C3=C(CC[C@@]12C)[C@@]1(C)CC[C@H](O)C(C)(C)C1CC3 (stereo partly drawn) [Compound 6, (20R,23E)-Eupha-8,23-diene-3β,25-diol]
IC50 [1]: 0.295 µM | Mouse HSD2/HSD1 [1]: >3393 | IC50 [2]: > 1000 µM | melting point: 132 to 133 °C | IC50 [3]: 0.016 µM | Human HSD2/HSD1 [3]: 41.7 | IC50 [4]: 0.666 µM

Structure (SMILES): CC(C)=CCC[C@@H](C)[C@@H]1CC[C@]2(C)C3=C(CC[C@@]12C)[C@@]1(C)CC[C@H](O)C(C)(C)[C@@H]1CC3 [Compound 3, Euphol]
IC50 [1]: 0.0805 µM | Mouse HSD2/HSD1 [1]: >12419 | IC50 [2]: > 1000 µM | IC50 [3]: 0.0161 µM | Human HSD2/HSD1 [3]: 24.6 | IC50 [4]: 0.395 µM

Structure (SMILES): C=C(C)[C@@H](O)CC[C@@H](C)[C@@H]1CC[C@]2(C)C3=C(CC[C@@]12C)[C@@]1(C)CC[C@H](O)C(C)(C)C1CC3 (stereo partly drawn) [Compound 5, (24R)-Eupha-8,25-diene-3β,24-diol]
IC50 [1]: 0.0495 µM | Mouse HSD2/HSD1 [1]: >20218 | IC50 [2]: > 1000 µM | IC50 [3]: 0.0265 µM | Human HSD2/HSD1 [3]: 63.7 | IC50 [4]: 1.69 µM

Structure (SMILES): CC(C)=CCCC(C)C1CCC2(C)C3=C(CCC12C)C1(C)CCC(O)C(C)(C)C1CC3=O (stereo not shown) [Compound 4, Kansenone]
IC50 [1]: 0.0134 µM | Mouse HSD2/HSD1 [1]: >74850 | IC50 [2]: > 1000 µM | IC50 [3]: 0.00281 µM | Human HSD2/HSD1 [3]: 38 | IC50 [4]: 0.107 µM

Structure (SMILES): C=C(CC[C@](C)(O)[C@@H]1CC[C@]2(C)C3CCC4C(C)(C)[C@@H](O)CC[C@]4(C)C3CC[C@@]12C)C(C)C (stereo partly drawn) [Compound 1, Euphane-3β,20-dihydroxy-24-ene]
IC50 [1]: 0.0784 µM | Mouse HSD2/HSD1 [1]: >12748 | IC50 [2]: > 1000 µM | IC50 [3]: 0.0349 µM | Human HSD2/HSD1 [3]: 234.6 | IC50 [4]: 8.18 µM
